The results in this text go back to patent US20220220106A1, “QUINOLINE COMPOUNDS AND PHARMACEUTICAL COMPOSITIONS AND USES THEREOF” (Academy of Military Medical Sciences, priority 2019, published 2022).

Test system in one data set: not given
Assay: not given
Settings: not given
In general, melting point refers to the temperature, or range, at which the solid turns liquid. `O=c1ccc2cnc3ccc(C4=CCC5(CC4)OCCO5)cc3c2n1-c1cccc(C(F)(F)F)c1` [HTL-7-13, 9-(1,4-dioxa-spiro[4.5]dec-7-en-8-yl)-2-oxo-1-[3-(trifluoromethyl)phenyl]-1,2-dihydrobenzo[h][1,6]naphthyridine] came in with a melting point of 210 to 211 °C.
`COc1ccc(CC(=O)Nc2ccc(-c3ccc4ncc5ccc(=O)n(-c6cccc(C(F)(F)F)c6)c5c4c3)cn2)cc1` [HTL-7-11, 9-{3-[6-(4-methoxy)phenylacetylamino]pyridyl}-2-oxo-1-[3-(trifluoromethyl)phenyl]-1,2-dihydrobenzo[h][1,6]naphthyridine] gave a melting point of 241 to 243 °C.
Same read-out and setting: the value for `COc1cc(-c2ccc3ncc4ccc(=O)n(-c5cccc(C(F)(F)F)c5)c4c3c2)cnc1N` [HTL-7-19, 9-[3-(6-amino-5-methoxy)pyridyl]-2-oxo-1-[3-(trifluoromethyl)phenyl]-1,2-dihydrobenzo[h][1,6]naphthyridine] was 233 to 234 °C.

In the next data set the target is T1, mTORC1 (Homo sapiens, UniProt P42345).
T1 construct: endogenous in cells; host or cells: RD cells
Briefly: Western blot, phosphorylation of Thr389 of p70S6K1 in RD cells (mTORC1 inhibition). The following applies: 20 μM, 2 hours, Western blot (FIG. 1). The data set is classed as cell-based. The protocol: In order to test the inhibitory activity of the synthesized compounds on the two mTOR complexes, the inhibitory activity experiments of mTORC1 and mTORC2 were carried out. Since mTORC1 and mTORC2 exerted their function by activating the phosphorylation of downstream substrates, the inhibitory activity of the compounds on mTORC1 and mTORC2 could be determined by detecting the phosphorylation levels of the Thr389 site of mTORC1 downstream substrate p70S6K1 and the Ser473 site of mTORC2 downstream substrate Akt.
Pretreatment of Compound:
(1) RD cells were cultured in DMEM medium containing 10% FBS and 1×PS (penicillin and streptomycin were at concentrations 100 IU and 100 μg/mL, respectively) at 37° C. and 5% CO2.
(2) The RD cells (5×10^5 cells/2 mL medium) were inoculated into a 6-well plate and incubated at 37° C. and 5% CO2 for 24 hours.
(3) The cells were washed once with PBS, and the cells were cultured in serum-free medium without nutrients overnight.
(4) Formulation of compounds: […]
Preparation of insulin medium: Insulin was diluted in DMEM medium containing 10% FBS and 1×PS so that the final concentration of insulin was 167 nM.
Pretreatment of compound to be tested: The compound was dissolved in DMSO so that the concentration of the test compound was 20 mM, and the compound was diluted in 167 nM insulin medium to reach a concentration of 20 μM.
Preparation of rapamycin solution: Rapamycin was dissolved in DMSO to a concentration of 10 mM, and the rapamycin was diluted in 167 nM insulin medium to reach a concentration of 20 μM.
(5) The serum-free medium in each well was removed.
(6) 2 mL of complete medium containing DMSO was added to each well as a control carrier. The final concentration of DMSO was 0.2%.
(7) 2 mL of 20 μM rapamycin solution and 20 μM the compound to be tested were added to the designated wells, respectively. The final concentration of DMSO was 0.2%.
(8) The cells were incubated for 2 hours at 37° C. and 5% CO2.
Protein extraction and concentration determination:
(1) The cells were washed once with refrigerated PBS, and then the PBS was discarded.
(2) 150 μL of cell extraction buffer (RIPA, […], catalog number: C1053) was transferred into each well to lyse the cells, and then the resulting cell solution were incubated on ice for 30 minutes.
(3) Centrifugation was performed at 14000 rpm (13000× g) for 30 minutes at 4° C.
(4) The supernatant was transferred into a new eppendorf tube, and the cell lysate was stored at −80° C. before testing.
(5) The protein concentration was determined by BCA method.
Preparation of Buffer Solutions:
(1) 100× Protease inhibitor (Beyotime, catalog number: P1005): 1 mL of redistilled water was added to the protease inhibitor and stirred gently until the solid was completely dissolved.
(2) Lysis Buffer: […] of 100× protease inhibitor and 2× phosphatase inhibitor Cocktails PhosSTOP (Beyotime, catalog number: P1082) were added to 100 mL of the cell extract, and stirred gently until it was completely dissolved.
(3) Electrophoresis Running Buffer:
10×MOPS buffer: 52.33 g of MOPS, 30.29 g of Tris base, 10 mL of 0.5 mol/L EDTA (pH 8.5) and 5 g of SDS was dissolved in 400 mL of redistilled water, stirred to dissolve, and the pH was adjusted to 7.5, then redistilled water was added again to reach a volume of 500 mL; 1×MOPS: 100 mL of 10×MOPS was diluted with redistilled water to 1000 mL.
(4) 1× Transfer Buffer: […] of 10× transfer buffer (144 g of glucine, 30.3 g of trisbase, and distilled water were mixed to reach a volume of 1 L) and 400 mL of methanol were dissolved in 1500 mL of redistilled water, and then the redistilled water was added to reach a volume of 2000 mL. […]
(Immunoblotting shows a protein as a band on a membrane.)
For `O=c1ccc2cnc3ccc(-c4ccc(N5CCCC5)nc4)cc3c2n1-c1cccc(C(F)(F)F)c1` [HTL-7-20, 9-[3-(6-pyrrolidinyl)pyridyl]-2-oxo-1-[3-(trifluoromethyl)phenyl]-1,2-dihydrobenzo[h][1,6]naphthyridine], the “p70 phosphorylation expression level” value was “significantly down-regulate”.
The same measure, in the same setting: the same measure for `O=c1ccc2cnc3ccc(-c4cccnc4F)cc3c2n1-c1cccc(C(F)(F)F)c1` [HTL-6-48, 9-[3-(2-fluoro)pyridyl]-2-oxo-1-[3-(trifluoromethyl)phenyl]-1,2-dihydrobenzo [h][1,6]naphthyridine]: “significantly down-regulate”.
Still for that read-out and setting: the value for `O=C1Cc2cc(-c3ccc4ncc5ccc(=O)n(-c6cccc(C(F)(F)F)c6)c5c4c3)ccc2N1` [HTL-7-04, 9-[5-(2-oxo)indolyl]-2-oxo-1-[3-(trifluoromethyl)phenyl]-1,2-dihydrobenzo[h][1,6]naphthyridine] was “significantly down-regulate”; that for `O=c1ccc2cnc3ccc(-c4ccc(F)nc4)cc3c2n1-c1cccc(C(F)(F)F)c1` [HTL-7-01, 9-[3-(6-fluoro)pyridyl]-2-oxo-1-[3-(trifluoromethyl)phenyl]-1,2-dihydrobenzo[h][1,6]naphthyridine] was “significantly down-regulate”; that for `CCC(=O)Nc1ccc(-c2ccc3ncc4ccc(=O)n(-c5cccc(C(F)(F)F)c5)c4c3c2)cn1` [HTL-6-45, 9-[3-(6-propionylamino)pyridyl]-2-oxo-1-[3-(trifluoromethyl)phenyl]-1,2-dihydrobenzo[h][1,6]naphthyridine] was “significantly down-regulate”.
As for `O=C(Nc1ccc(-c2ccc3ncc4ccc(=O)n(-c5cccc(C(F)(F)F)c5)c4c3c2)cn1)OCc1ccccc1` [HTL-7-14, 9-[3-(6-benzyloxyamido)pyridyl]-2-oxo-1-[3-(trifluoromethyl)phenyl]-1,2-dihydrobenzo[h][1,6]naphthyridine], the “p70 phosphorylation expression level” value was “significantly down-regulate”.
As for `O=C(Cc1ccccc1)Nc1ccc(-c2ccc3ncc4ccc(=O)n(-c5cccc(C(F)(F)F)c5)c4c3c2)cn1` [HTL-7-10, 9-[3-(6-phenylacetylamino)pyridyl]-2-oxo-1-[3-(trifluoromethyl)phenyl]-1,2-dihydrobenzo[h][1,6]naphthyridine], the “p70 phosphorylation expression level” value is listed as “significantly down-regulate”.
Still for that read-out and setting: the same measure for `O=c1ccc2cnc3ccc(C4=CCC5(CC4)OCCO5)cc3c2n1-c1cccc(C(F)(F)F)c1` [HTL-7-13, 9-(1,4-dioxa-spiro[4.5]dec-7-en-8-yl)-2-oxo-1-[3-(trifluoromethyl)phenyl]-1,2-dihydrobenzo[h][1,6]naphthyridine]: “significantly down-regulate”.
`COc1ccc(-c2ccc3ncc4ccc(=O)n(-c5cccc(C(F)(F)F)c5)c4c3c2)cn1` [HTL-7-03, 9-[3-(6-methoxy)pyridyl]-2-oxo-1-[3-(trifluoromethyl)phenyl]-1,2-dihydrobenzo[h][1,6]naphthyridine]: the “p70 phosphorylation expression level” value is “significantly down-regulate”.
As to `COc1ccc(CC(=O)Nc2ccc(-c3ccc4ncc5ccc(=O)n(-c6cccc(C(F)(F)F)c6)c5c4c3)cn2)cc1` [HTL-7-11, 9-{3-[6-(4-methoxy)phenylacetylamino]pyridyl}-2-oxo-1-[3-(trifluoromethyl)phenyl]-1,2-dihydrobenzo[h][1,6]naphthyridine], the “p70 phosphorylation expression level” value was “significantly down-regulate”.
With `CCCC(=O)Nc1ccc(-c2ccc3ncc4ccc(=O)n(-c5cccc(C(F)(F)F)c5)c4c3c2)cn1` [HTL-7-05, 9-[3-(6-butyrylamino)pyridyl]-2-oxo-1-[3-(trifluoromethyl)phenyl]-1,2-dihydrobenzo[h][1,6]naphthyridine], the “p70 phosphorylation expression level” value is “significantly down-regulate”.
On the same count and under the same terms, the same measure for `COc1cc(-c2ccc3ncc4ccc(=O)n(-c5cccc(C(F)(F)F)c5)c4c3c2)cnc1N` [HTL-7-19, 9-[3-(6-amino-5-methoxy)pyridyl]-2-oxo-1-[3-(trifluoromethyl)phenyl]-1,2-dihydrobenzo[h][1,6]naphthyridine]: “significantly down-regulate”; for `CN1CCN(c2ccc(-c3ccc4ncc5ccc(=O)n(-c6cccc(C(F)(F)F)c6)c5c4c3)cn2)CC1` [HTL-7-17, 9-{3-[6-(4-methylpiperazin-1-yl)pyridyl]}-2-oxo-1-[3-(trifluoromethyl)phenyl]-1,2-dihydrobenzo[h][1,6]naphthyridine]: “significantly down-regulate”.
Still for that read-out and setting: the value for `O=c1ccc2cnc3ccc(-c4ccc(N5CCOCC5)nc4)cc3c2n1-c1cccc(C(F)(F)F)c1` [HTL-7-18, 9-[3-(6-morpholin-4-yl)pyridyl]-2-oxo-1-[3-(trifluoromethyl)phenyl]-1,2-dihydrobenzo[h][1,6]naphthyridine] was “significantly down-regulate”.
Regarding `Cc1ncccc1-c1ccc2ncc3ccc(=O)n(-c4cccc(C(F)(F)F)c4)c3c2c1` [HTL-6-49, 9-[3-(2-methyl)pyridyl]-2-oxo-1-[3-(trifluoromethyl)phenyl]-1,2-dihydrobenzo[h][1,6]naphthyridine], the “p70 phosphorylation expression level” value was “significantly down-regulate”.
Regarding `Nc1cccc(Nc2ccc3ncc4ccc(=O)n(-c5cccc(C(F)(F)F)c5)c4c3c2)n1` [HTL-6-12, 9-[2-(6-aminopyridyl)]imino-2-oxo-1-[3-(trifluoromethyl)phenyl]-1,2-dihydrobenzo[h][1,6]naphthyridine], the “p70 phosphorylation expression level” value is “significantly down-regulate”.
Still for that read-out and setting: the same measure for `CN(C)c1ccc(-c2ccc3ncc4ccc(=O)n(-c5cccc(C(F)(F)F)c5)c4c3c2)cn1` [HTL-7-16, 9-[3-(6-N,N-dimethyl)pyridyl]-2-oxo-1-[3-(trifluoromethyl)phenyl]-1,2-dihydrobenzo[h][1,6]naphthyridine]: “significantly down-regulate”.
As to `O=C(Nc1ccc(-c2ccc3ncc4ccc(=O)n(-c5cccc(C(F)(F)F)c5)c4c3c2)cn1)Oc1ccccc1` [HTL-7-15, 9-[3-(6-phenoxyamido)pyridyl]-2-oxo-1-[3-(trifluoromethyl)phenyl]-1,2-dihydrobenzo[h][1,6]naphthyridine], the “p70 phosphorylation expression level” value is on record as “significantly down-regulate”.
Same read-out and setting: the same measure for `Nc1cccc(Nc2ccc3ncc4ccc(=O)n(-c5cccc(C(F)(F)F)c5)c4c3c2)c1` [HTL-6-11, 9-(3-aminophenyl)imino-2-oxo-1-[3-(trifluoromethyl)phenyl]-1,2-dihydrobenzo[h][1,6]naphthyridine]: “significantly down-regulate”; for `CC(C)(C)OC(=O)Nc1ccc(-c2ccc3ncc4ccc(=O)n(-c5cccc(C(F)(F)F)c5)c4c3c2)cn1` [HTL-7-21, 9-[3-(6-tert-butoxycarbonylamino)pyridyl]-2-oxo-1-[3-(trifluoromethyl)phenyl]-1,2-dihydrobenzo[h][1,6]naphthyridine]: “significantly down-regulate”.
As for `CCCCC(=O)Nc1ccc(-c2ccc3ncc4ccc(=O)n(-c5cccc(C(F)(F)F)c5)c4c3c2)cn1` [HTL-7-08, 9-[3-(6-valerylamino)pyridyl]-2-oxo-1-[3-(trifluoromethyl)phenyl]-1,2-dihydrobenzo[h][1,6]naphthyridine], the “p70 phosphorylation expression level” value is “significantly down-regulate”.
